Assay results published in US8673950B2, “Dihydrooxazol-2-amine derivatives” (Hoffmann-LaRoche Inc., priority 2010, dated 2014).

Columns and labels:
[1] = biological target: rat TAAR1 (Rattus norvegicus (Rat), UniProt Q923Y9); test: Radioligand binding assay on rat TAAR1; settings: for Ki: rat TAAR1, membranes of stably transfected HEK-293 cells, second value of cell mouse/rat
How it was run: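 Membranes from HEK293 cells stably expressing rat TAAR1, in 20 mM HEPES-NaOH pH 7.4 with 0.1 mM EDTA. Displacement of ^3[H]-(S)-4-[(ethyl-phenyl-amino)-methyl]-4,5-dihydro-oxazol-2-ylamine, nonspecific binding with 10 μM unlabeled ligand; compounds 10 pM to 10 μM in duplicate, 1 hr at 4° C. Filtration, then scintillation counting.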

[2] = biological target: mouse TAAR1 (Mus musculus (Mouse), UniProt Q923Y8); test: Radioligand binding assay on mouse TAAR1; settings: for Ki: mouse TAAR1, membranes of stably transfected HEK-293 cells, first value of cell mouse/rat
Chain of mouse TAAR1 (Q923Y8 whole entry): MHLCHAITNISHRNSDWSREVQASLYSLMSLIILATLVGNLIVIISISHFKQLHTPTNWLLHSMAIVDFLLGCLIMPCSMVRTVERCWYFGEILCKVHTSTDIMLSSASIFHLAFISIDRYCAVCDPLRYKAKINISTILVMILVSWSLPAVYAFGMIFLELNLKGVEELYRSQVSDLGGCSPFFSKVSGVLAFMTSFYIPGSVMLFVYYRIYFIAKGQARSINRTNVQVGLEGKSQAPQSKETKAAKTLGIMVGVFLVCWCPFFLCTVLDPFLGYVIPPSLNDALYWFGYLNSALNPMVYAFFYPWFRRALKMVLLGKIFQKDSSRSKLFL

Chain of rat TAAR1 (Q923Y9 whole entry): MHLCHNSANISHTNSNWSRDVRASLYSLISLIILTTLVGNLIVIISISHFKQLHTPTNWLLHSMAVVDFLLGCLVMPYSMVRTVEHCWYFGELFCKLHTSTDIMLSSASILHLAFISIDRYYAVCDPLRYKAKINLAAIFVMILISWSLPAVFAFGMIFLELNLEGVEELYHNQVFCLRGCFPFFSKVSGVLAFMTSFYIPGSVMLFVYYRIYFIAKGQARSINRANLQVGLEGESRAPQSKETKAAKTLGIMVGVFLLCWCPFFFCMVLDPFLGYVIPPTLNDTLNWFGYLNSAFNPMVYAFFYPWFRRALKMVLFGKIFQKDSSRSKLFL

Ki [1] | Ki [2] | Kd ([1]; rat TAAR1 membranes, saturation curve, read-out: dissociation constant (Kd) of the radioligand) | Kd ([2]; mouse TAAR1 membranes, saturation curve, read-out: dissociation constant (Kd) of the radioligand) | SMILES
0.0007 µM | 0.0019 µM | – | – | Cc1cc(CC[C@H]2COC(N)=N2)ccc1Nc1ncc(Cl)cn1 [Example 72, {4-[2-((S)-2-Amino-4,5-dihydro-oxazol-4-yl)-ethyl]-2-methyl-phenyl}-(5-chloro-pyrimidin-2-yl)-amine]
0.0028 µM | 0.02 µM | – | – | NC1=N[C@@H](CCc2ccc(Nc3ncc(OCC(F)(F)F)cn3)cc2)CO1 [Example 73, (S)-4-(4-(5-(2,2,2-Trifluoroethoxy)pyrimidin-2-ylamino)phenethyl)-4,5-dihydrooxazol-2-amine]
0.0146 µM | 0.046 µM | – | – | CS(=O)(=O)c1cnc(Nc2ccc(CC[C@H]3COC(N)=N3)cc2)nc1 [Example 74, (S)-4-(4-(5-(Methylsulfonyl)pyrimidin-2-ylamino)phenethyl)-4,5-dihydrooxazol-2-amine]
0.104 µM | 0.48 µM | – | – | C[S+]([O-])c1cnc(Nc2ccc(CC[C@H]3COC(N)=N3)cc2)nc1 (stereo partly drawn) [Example 75, (4S)-4-(4-(5-(Methylsulfinyl)pyrimidin-2-ylamino)phenethyl)-4,5-dihydrooxazol-2-amine]
– | – | ~2.3 nM | ~0.7 nM | CCN(C[C@H]1COC(N)=N1)c1ccccc1 [^3[H]-(S)-4-[(ethyl-phenyl-amino)-methyl]-4,5-dihydro-oxazol-2-ylamine, reference compound]

SMILES | Ki [1] | Ki [2] | Kd ([1]; rat TAAR1 membranes, saturation curve, read-out: dissociation constant (Kd) of the radioligand) | Kd ([2]; mouse TAAR1 membranes, saturation curve, read-out: dissociation constant (Kd) of the radioligand)
NC1=N[C@@H](CCc2ccc(NC(c3cc(Cl)cc(Cl)c3)C(F)(F)F)cc2)CO1 (stereo partly drawn) [Example 69, (4S)-4-(4-(1-(3,5-Dichlorophenyl)-2,2,2-trifluoroethylamino)phenethyl)-4,5-dihydrooxazol-2-amine] | 0.0407 µM | 0.0355 µM | – | –
COc1cccc(C(Nc2ccc(CC[C@H]3COC(N)=N3)cc2)C(F)(F)F)n1 (stereo partly drawn) [Example 70, (4S)-4-(4-(2,2,2-Trifluoro-1-(6-methoxypyridin-2-yl)ethylamino)phenethyl)-4,5-dihydrooxazol-2-amine] | 0.0205 µM | 0.134 µM | – | –
NC1=N[C@@H](CCc2ccc(Nc3ncc(Cl)cn3)nc2)CO1 [Example 71, {5-[2-((S)-2-Amino-4,5-dihydro-oxazol-4-yl)-ethyl]-pyridin-2-yl}-(5-chloro-pyrimidin-2-yl)-amine] | 0.0011 µM | 0.0137 µM | – | –
